Measured values taken from patent publication US9572862B2, “Methods for promoting lipolysis and oxidation in liver and adipose tissue using catestatin” (The Regents of the University of California, priority 2012, dated 2017).
Entries after “also recorded” stand apart in the source; their conditions may differ. No end group written: not given here.

What was measured:
[1] = tested on: STAT3 and AMPK phosphorylation; experiment: Stat3 and AMPK signaling in adipose explants from DIO mice; assay type: cell-based; settings: CST in vivo, leptin 1 μM ex vivo 30 min
Experimental: FIG. 9. Stat3 and AMPK signaling in the adipose tissue explants from DIO and Ob/Ob mice treated with saline, CST (in vivo) and leptin (ex vivo). Explants from DIO mice (A&B) and Ob/Ob mice (C&D) were incubated with saline or leptin (1 μM) for 30 min, homogenized and immunoblotted for phospho- and total Stat3 (A&C) as well as phospho- and total AMPK signals (B&D). Results are presented as the ratio of signal strength of phospho-over total.
Adipose tissue explants were prepared as described (42). Epididymal fat pads from 12 hr fasted WT, Chga-KO, DIO and Ob/Ob mice with or without CST treatment were collected in Kreb-Ringer-phosphate (KRP) buffer containing 10 mM Hepes and 0.5% BSA. Tissues were minced to 1-2 mm size and treated with 100 nM CST, 1 μM leptin, or saline for 30 min (for signaling analysis) or 3 hr (for lipolysis and β-oxidation assays). Explants were also treated acutely with CST, leptin, a combination, or saline. At the end, incubation media were saved for analysis of glycerol and fatty acid release. Explants were washed prior to homogenization for immunoblotting and analysis of fatty acid oxidation.
Adipose tissue explants after treatments ex vivo and tissues from mice treated in vivo were homogenized in a buffer containing phosphatase and protease inhibitors (20 mM Tris/HCl (pH 7.5), 250 mM sucrose, 2 mM EDTA, 2 mM EGTA, 2 mM Na3VO4, 10 mM NaF, 2 mM Na4P2O7, 1 mM phenylmethylsulfonyl fluoride, 20 μg/ml leupeptin, 10 μg/ml aprotinin, and 1 μM LR-microcystin) as described (38,44). Homogenates were subjected to SDS-PAGE and immunoblotted. Primary antibodies for AMPK and Stat3 were from Cell Signaling Technology (Beverly, Mass.). The chemiluminescence kit was from Pierce (Rockford, Ill.).

[2] = tested on: CST-KO mice; experiment: ITT in insulin resistant CST-KO mice with CST, RI-CST or NSC-177941; assay type: in vivo; settings: ITT in CST-KO mice
From the text: FIG. 16. […] Figures in parentheses indicate number of animals.

[3] = tested on: db/db mice; experiment: CST treatment of diabetic db/db mice; assay type: in vivo
From the text: FIG. 15. […] Figures in parentheses indicate number of animals.

[4] = tested on: HFD-fed CST-KO mice; experiment: CST supplementation in HFD-fed CST-KO mice; assay type: in vivo
From the text: FIG. 12. Metabolic phenotypes in HFD-fed CST-KO mice. (A) CST-KO mice eat more 60% HFD than WT. (B) CST-KO mice gained more weight than WT. (C) Heightened glucose resistance at baseline in CST-KO mice compared to WT mice. […] Figures in parentheses indicate number of animals.

[5] = tested on: HFD-fed Chga-KO mice; experiment: Peptide supplementation to HFD-fed Chga-KO mice (insulin sensitivity); assay type: in vivo; settings: HFD (60%)-fed Chga-KO mice
[6] = tested on: 3T3-L1 adipocytes; experiment: Leptin in adipocyte culture media after CST; assay type: cell-based; settings: cultured 3T3-L1 adipocytes
Experimental: FIG. 1. Plasma parameters of wild-type (WT) and Chga-KO mice treated with saline or CST. (A) Plasma CST from saline or CST (5 μg/g BW, i.p./day) treated WT mice (28 week old) on normal chow (NCD) and high fat diet (60% fat for 16 weeks) as well as from Chga-KO mice (28 week old) on NCD. Body weights (B) and epididymal fat pad size normalized to body weight (C) in 28 week old WT and Chga-KO mice treated with saline or CST for 12 days. Plasma triglyceride (TG) (D), glycerol (E), non-esterified fatty acids (NEFA) (F), and leptin (G) in 28 week old WT and Chga-KO mice after treatment with saline or CST for 12 days. (H) Leptin in adipocyte culture media after treatment with saline or CST.
Mice were fasted for 12 hr prior to blood draw. Triglycerides (TG) and non-esterified fatty acids (NEFA) were assayed using kits from Wako Diagnostics (Richmond, Va.). Glycerol was assayed using a kit from Sigma (St Louis, Mo.). Media from the explant cultures and mouse serum were analysed for glycerol and NEFA as a measure of lipolysis. […]
Oxidation of radiolabeled palmitate in the homogenates of adipose tissue explants as described previously (45). […] Fatty acid oxidation in cells was determined by modifying a published method (46). […] The filter discs were counted to determine the amount of ^14CO2 absorbed in the papers. […]

[7] = tested on: CST-KO mice; experiment: Palmitate oxidation and hepatic gene expression in CST-KO mice; assay type: in vivo
From the text: FIG. 14. Palmitate oxidation. CST augmented palmitate oxidation in liver (A) and muscle (B) of both NCD- and 60% HFD-fed mice. Hepatic expression of genes involved in fatty acid oxidation such as Cpt1α(C), Acox (D) and Pparα (E). Augmented expression of these genes in Chga-KO mice indicates increased fatty acid oxidation in liver. In contrast, decreased expression in CST-KO mice indicates decreased fatty acid oxidation in liver, which was restored by supplementation with CST. Expression of lipogenic & gluconeogenic genes (F). Increased expression of Srebp1c in Chga-KO mice indicates increased lipogenesis. (G) Decreased expression of gluconeogenic gene Pepck in Chga-KO mice indicates inhibition of gluconeogenesis eventuating in increased sensitivity to insulin. In contrast, augmented expression of Pepck in CST-KO implicates increased gluconeogenesis eventuating in decreased sensitivity to insulin, which is normalized after CST supplementation. Figures in parentheses indicate number of animals.

[8] = CST-KO mice, CST supplementation

## SSMKLSFRARAYGFRGPGPQL [CST]
[1]
  AMPK phosphorylation: not AMPK phosphorylation
  STAT3 phosphorylation: stimulated only STAT3 phosphorylation
[2]
  persistence of the insulin-sensitizing effect: persisted throughout the experimental period
[3]; CST 10 μg/g/day for 14 days
  glucose tolerance (GTT): improvement in glucose tolerance; also recorded: improved glucose tolerance
[3]; CST 14 days
  C-peptide level: without lowering C-peptide levels; also recorded: No change in C-Peptide level
  C-peptide/Insulin molar ratio: increased; also recorded: higher C-Peptide/insulin molar ratio
[3]; CST 14 days (untreated db/db 20-30 nM)
  plasma insulin level: 14 to 18 nM
[4]
  basal plasma insulin level: decreased; also recorded: reduced hyperinsulinemia
[4]; CST 5 μg/g BW
  insulin sensitivity (IP-ITT): improved insulin sensitivity; also recorded: reversed glucose resistance to glucose tolerance
[5]
  insulin sensitivity (GTT): made HFD-fed Chga-KO mice sensitive to insulin
[6]
  leptin production / release: inhibited leptin production; also recorded: inhibited leptin release
[7]; [8]
  palmitate oxidation in liver: stimulated; also recorded: augmented
  palmitate oxidation in muscle: stimulated; also recorded: augmented
[7]; liver of CST-KO mice
  hepatic expression of Acox: stimulated expression; also recorded: restored
  hepatic expression of Cpt1α: stimulated expression; also recorded: restored
  hepatic expression of Pepck: suppressed the expression; also recorded: normalized
  hepatic expression of Pparα: stimulated expression; also recorded: restored
  hepatic expression of Srebp1c: stimulated expression
